Experimental data: the METLIN SMRT retention time set (Domingo-Almenara et al. 2019)

Experiment: gradient 5% acetonitrile 3 min, to 50% in 2 min, to 85% in 15 min, held 3 min, 100 µL/min
Conditions: column: Zorbax Extend-C18 2.1 x 50 mm; eluents: water / acetonitrile, 0.1% formic acid
Summary of the method: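 In both positive and negative ionization mode, a quadrupole time-of-flight mass spectrometer coupled to HPLC analyzed pure standards run in mixtures of ~100 molecules. The Zorbax Extend-C18 column (2.1 × 50 mm, 1.8 μm) was operated at 100 μL/min with water and acetonitrile, each containing 0.1% formic acid. The dead volume was 40 μL and the dwell volume 900 μL. Retention time came from adduct peaks that were computationally picked and individually inspected by hand.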

Structure (SMILES): CCc1ccccc1NC(=O)NCCNC(=O)c1ccc(NC(=O)C2CC2)cc1
- RP-LC retention time: 657 s

Structure (SMILES): Cc1nc(Nc2ccccc2)sc1C(=O)NCC1CC1
- RP-LC retention time: 800 s

Structure (SMILES): N#Cc1cccc(-c2cn3c(n2)N(C(=O)COc2ccccc2)CCC3)c1
- RP-LC retention time: 961 s

Structure (SMILES): CCCN(CC1CCOC1)C(=O)Nc1cccc(C(F)(F)F)c1 (stereo not given)
- RP-LC retention time: 922 s

Structure (SMILES): COc1ccc(N2CCN(C(=O)c3cc4c(s3)CN(C3CCCC3)C4)CC2)cc1
- RP-LC retention time: 623 s

Structure (SMILES): CCOc1ccc(-c2ccc(=O)n(Cc3nc(-c4cccc(OC)c4)no3)n2)cc1
- RP-LC retention time: 949 s

Structure (SMILES): CCc1noc(NC(C)=O)c1-c1ccc(C)c(S(=O)(=O)Nc2cc(OC)c(OC)c(OC)c2)c1
- RP-LC retention time: 761 s

Structure (SMILES): COc1ccc(-c2noc(Cn3ccn(-c4cc(C)ccc4C)c(=O)c3=O)n2)cc1
- RP-LC retention time: 920 s

Structure (SMILES): Clc1ccc(-c2csc(Nc3c(Cl)cccc3Cl)n2)cc1Cl
- RP-LC retention time: 1410 s

Structure (SMILES): CCN1C(=O)c2cccnc2Sc2cc(C(=O)NC3CCCCC3)ccc21
- RP-LC retention time: 826 s

Structure (SMILES): O=C(Nc1ccc2ncsc2c1)c1sc2ccccc2c1Cl
- RP-LC retention time: 997 s

Structure (SMILES): Cc1c(Cl)cccc1NS(=O)(=O)c1cc2c(s1)CCN(C(=O)C1CCC1)C2
- RP-LC retention time: 916 s

Structure (SMILES): Cc1nc(C)c(C(=O)NC2CCc3nn(CC4CC4)c(=O)n3CC2)s1 (stereo not given)
- RP-LC retention time: 597 s

Structure (SMILES): Cc1ccsc1C(=O)Nc1cccn2c(C)nnc12
- RP-LC retention time: 670 s

Structure (SMILES): CCN1CCN(CCCNC(=O)c2ccc3c(c2)N(C)C(=O)C2CCCCN32)CC1 (stereo not given)
- RP-LC retention time: 554 s

Structure (SMILES): Cc1ccccc1Oc1nccn2c(=O)n(CC(=O)Nc3c(C)cccc3C)nc12
- RP-LC retention time: 838 s

Structure (SMILES): CCC(C(=O)N1CCOCC1)n1c2ccccc2c2cnn(C)c(=O)c21 (stereo not given)
- RP-LC retention time: 764 s

Structure (SMILES): CCOc1ccc(-n2ccn3c(CCCC(=O)N4CCN(c5ccccn5)CC4)nnc3c2=O)cc1
- RP-LC retention time: 606 s

Structure (SMILES): CCN1C(=O)c2cccnc2Sc2cc(NC(=O)c3ccn(CC)n3)ccc21
- RP-LC retention time: 738 s

Structure (SMILES): Cc1nnc(N2CCCC(C(=O)NCc3ccccc3F)C2)c2nn(-c3ccccc3)c(C)c12 (stereo not given)
- RP-LC retention time: 722 s

Structure (SMILES): O=C1CCCN1CN(C(=O)c1ccccc1F)c1nc2ccccc2s1
- RP-LC retention time: 866 s

Structure (SMILES): O=C(Nc1cc(F)ccc1F)N1CCc2nc(-c3ccc(F)cc3)ncc2C1
- RP-LC retention time: 985 s

Structure (SMILES): Cc1ccccc1CNC(=O)Cc1cn(C)c2ncccc12
- RP-LC retention time: 689 s

Structure (SMILES): O=C(c1ccsc1)N1CCC(Cc2nnc(-c3ccccc3)o2)CC1
- RP-LC retention time: 774 s

Structure (SMILES): COc1ccc(CCc2nc3nccc(-c4ccc(OC)cc4)n3n2)cc1
- RP-LC retention time: 943 s

Structure (SMILES): CCc1cc(C(=O)N2CCN(c3ccccn3)CC2)nc2cc(-c3cccs3)nn12
- RP-LC retention time: 706 s

Structure (SMILES): Cc1ccc(NC(=O)N2CCC(n3cnc4ccc(Cl)cc4c3=O)CC2)cc1C
- RP-LC retention time: 913 s

Structure (SMILES): Cc1cccc(-c2nnc(-c3cc(S(=O)(=O)N(C)C)ccc3F)o2)c1
- RP-LC retention time: 994 s

Structure (SMILES): O=C(CN1CCC2(CC1)N=C(c1ccc(Br)cc1)C(=O)N2)Nc1ccccc1
- RP-LC retention time: 825 s

Structure (SMILES): O=C(CNC(=O)c1ccc(=O)[nH]c1)NCC1CCCCC1
- RP-LC retention time: 599 s

Structure (SMILES): c1ccc(-c2nc(-c3ccncc3)no2)c(OC2CCN(CC3CC3)C2)c1 (stereo not given)
- RP-LC retention time: 642 s

Structure (SMILES): COc1cc(NC(=O)CSc2cc(N3CCN(c4ccccc4OC)CC3)ncn2)cc(OC)c1
- RP-LC retention time: 957 s

Structure (SMILES): Cc1oc(C2CCN(S(=O)(=O)c3ccc(C(C)C)cc3)CC2)nc1C(=O)N1CCCC1
- RP-LC retention time: 1070 s

Structure (SMILES): CSc1ccccc1CN1CCC(CNC(=O)C(=O)NCc2ccc(F)cc2)CC1
- RP-LC retention time: 595 s

Structure (SMILES): CCOc1ccc(C(=O)N2CCC3(CC2)NCc2ccccc2-n2ccnc23)cc1
- RP-LC retention time: 619 s

Structure (SMILES): CCn1c(CCC(=O)NCc2cccc(F)c2)nc2ccccc2c1=O
- RP-LC retention time: 700 s

Structure (SMILES): C/C=C/C(=O)N1C(=O)OC[C@@H]1Cc1ccccc1
- RP-LC retention time: 891 s

Structure (SMILES): N#Cc1cccc(C(=O)NC2CCN(c3ccc(F)cc3)C2=O)c1 (stereo not given)
- RP-LC retention time: 768 s

Structure (SMILES): COc1ccc(N2CC(c3noc(-c4ccccc4OC)n3)CC2=O)cc1 (stereo not given)
- RP-LC retention time: 858 s

Structure (SMILES): COc1ccccc1-c1csc(-c2nnn(-c3ccc(C)cc3)c2N)n1
- RP-LC retention time: 1160 s

Structure (SMILES): CNC(=O)c1ccccc1Nc1cc(Nc2ccc(N3CCOCC3)cc2OC)ncc1C(F)(F)F
- RP-LC retention time: 764 s

Structure (SMILES): Cc1sc(-c2nnc(C3CC3)o2)cc1NC(=O)C1CCC1
- RP-LC retention time: 856 s

Structure (SMILES): Cc1cc(C)cc(NC(=O)N2CCCC(C)(C(=O)NCc3ccccc3)C2)c1 (stereo not given)
- RP-LC retention time: 959 s

Structure (SMILES): COC(=O)c1c(NCc2cc(OC)ccc2OC)c2cccc(Cl)c2[nH]c1=O
- RP-LC retention time: 808 s

Structure (SMILES): Cc1ccc2c(c1)N(S(C)(=O)=O)CCC(C(=O)Nc1ccc(C(F)(F)F)cc1)O2 (stereo not given)
- RP-LC retention time: 1090 s

Structure (SMILES): CC1CCCN(CCCNC(=O)c2nc(CCS(=O)(=O)c3ccc(F)cc3)no2)C1 (stereo not given)
- RP-LC retention time: 620 s

Structure (SMILES): Cc1cccc(-c2noc(Cn3nc(-c4ccccc4)ccc3=O)n2)c1
- RP-LC retention time: 1060 s

Structure (SMILES): O=C(CCc1c[nH]c2ccccc12)NC1CCN(c2ccc(=O)[nH]n2)C1 (stereo not given)
- RP-LC retention time: 595 s

Structure (SMILES): O=C(Nc1ccccc1Br)N1CCN(CCn2c(C(F)(F)F)nc3cccnc32)CC1
- RP-LC retention time: 657 s

Structure (SMILES): CC(C)CCNC(=O)C1(C)Cn2nc(C(=O)NCc3ccccc3F)cc2C(=O)N1C (stereo not given)
- RP-LC retention time: 763 s

Structure (SMILES): Cc1ccc(NC(=O)Cn2c(=O)cc(-c3nc(C4CC4)no3)c3ccccc32)cc1F
- RP-LC retention time: 1020 s

Structure (SMILES): O=C(C1CCCC1)N1CCCC1c1nc(C2CCOCC2)no1 (stereo not given)
- RP-LC retention time: 725 s

Structure (SMILES): CN1CCCc2cc(C(=O)NCc3cccc(F)c3)sc21
- RP-LC retention time: 915 s

Structure (SMILES): Cc1ccc(-c2noc(-c3cccc(S(=O)(=O)NCCCN4CCC(C)CC4)c3)n2)cc1
- RP-LC retention time: 826 s

Structure (SMILES): CCN(C(=O)Nc1ccccc1C(F)(F)F)c1nc(-c2ccc(C)cc2)cs1
- RP-LC retention time: 576 s

Structure (SMILES): NC(=O)C1CCN(C(=O)CN2CCc3ccccc32)CC1
- RP-LC retention time: 610 s

Structure (SMILES): CC(=O)Nc1ccc(NC(=O)C2CCN(S(=O)(=O)c3ccc4c(c3)sc(=O)n4C)CC2)cc1
- RP-LC retention time: 686 s

Structure (SMILES): O=C(Cn1nc2c(N3CCc4ccccc4C3)nccn2c1=O)Nc1ccccc1Cl
- RP-LC retention time: 896 s

Structure (SMILES): COc1ccc(-c2nsc(SCC(=O)Nc3cc(C)on3)n2)cc1
- RP-LC retention time: 860 s

Structure (SMILES): Cc1nc(-c2cn(C(C)C)c3ncccc23)sc1C(=O)NCc1ccccc1
- RP-LC retention time: 995 s

Structure (SMILES): COc1ccccc1CNC(=O)c1cn2ccccc2n1
- RP-LC retention time: 665 s

Structure (SMILES): Cc1cc(C)cc(N2CCC(NC(=O)c3ccccc3)C2=O)c1 (stereo not given)
- RP-LC retention time: 857 s

Structure (SMILES): Cc1ccn2c(NC(=O)c3ccc(Cl)c([N+](=O)[O-])c3)c(-c3ccc(F)cc3)nc2c1
- RP-LC retention time: 757 s

Structure (SMILES): Cc1cccc(CNC(=O)C2(c3ccc(NS(C)(=O)=O)cc3)CCCCC2)c1
- RP-LC retention time: 921 s

Structure (SMILES): O=C(Cn1nc2n(c1=O)CCCC2)N1CCN(c2ccccc2)CC1
- RP-LC retention time: 638 s

Structure (SMILES): Cc1ccc(-c2cc(C(=O)N3CCN(C4CCN(C)CC4)CC3)n(C)c2)cc1
- RP-LC retention time: 590 s

Structure (SMILES): O=C(NC1CCCC1)N1CCC(c2noc(-c3ccccc3)n2)C1 (stereo not given)
- RP-LC retention time: 868 s

Structure (SMILES): O=C(Nc1cnn(-c2ncc(N3CCSCC3)cn2)c1)NC1CCCCC1
- RP-LC retention time: 759 s

Structure (SMILES): CCC(C)NC(=O)NC1CCN(C2=NS(=O)(=O)C(c3cccc(Cl)c3)=C2C)CC1 (stereo not given)
- RP-LC retention time: 814 s

Structure (SMILES): Nc1nc(-c2ccc(O)cc2)cs1
- RP-LC retention time: 547 s

Structure (SMILES): Cc1nnc(N2CCCC(C(=O)NCCCN3CCCC3=O)C2)c2nn(-c3ccccc3)c(C)c12 (stereo not given)
- RP-LC retention time: 616 s

Structure (SMILES): O=C1CC(c2nc(-c3ccc(C(F)(F)F)cc3)no2)CN1c1ccc2c(c1)OCCO2 (stereo not given)
- RP-LC retention time: 1030 s

Structure (SMILES): Cc1oc(C2CCN(S(=O)(=O)c3ccccc3)CC2)nc1C(=O)N1CCOCC1
- RP-LC retention time: 758 s

Structure (SMILES): Cc1ccc(-c2noc(C3CCCN3S(=O)(=O)c3cc(C)ccc3C)n2)cc1 (stereo not given)
- RP-LC retention time: 1240 s

Structure (SMILES): CC(C)CCNC(=O)C1CCN(Cc2cc3ccccc3n2Cc2ccccc2Cl)CC1
- RP-LC retention time: 829 s

Structure (SMILES): CCc1nc2c(NC(=O)c3ccc(Cl)s3)cccn2n1
- RP-LC retention time: 941 s

Structure (SMILES): O=C(NCC1CCCO1)c1cc(-c2cccs2)nc2ccccc12 (stereo not given)
- RP-LC retention time: 841 s

Structure (SMILES): CC(C)CCNC(=O)c1csc(-c2ccc(N3CCCC3)nc2)n1
- RP-LC retention time: 714 s

Structure (SMILES): CCc1nc(N)n(CC(=O)NCc2ccc(F)cc2F)c(=O)c1C
- RP-LC retention time: 632 s

Structure (SMILES): COc1ccc(-c2c(NC(=O)c3ccco3)n(-c3ccccc3)nc(C)c2=O)cc1
- RP-LC retention time: 674 s

Structure (SMILES): COc1ccc(OC)c(CNC(=O)C2CCCN(c3nnc4cccc(C)n34)C2)c1 (stereo not given)
- RP-LC retention time: 672 s

Structure (SMILES): CCOC(=O)c1noc2ncnc(NCCc3ccc(Cl)cc3)c12
- RP-LC retention time: 1110 s

Structure (SMILES): CCc1noc(NC(C)=O)c1-c1ccc(C)c(S(=O)(=O)N2CC=C(c3ccccc3)CC2)c1
- RP-LC retention time: 1020 s

Structure (SMILES): COc1ccc(CC2C(=O)Nc3ccc(Br)cc32)cc1 (stereo not given)
- RP-LC retention time: 882 s

Structure (SMILES): Cc1cc(C)cc(NC(=O)C2CCN(S(=O)(=O)c3ccc4[nH]c(=O)sc4c3)CC2)c1
- RP-LC retention time: 851 s

Structure (SMILES): CCn1c(C)nnc1SCc1nc(-c2ccc(OC)c(OC)c2)oc1C
- RP-LC retention time: 651 s

Structure (SMILES): COc1ccc(CN2C=C(C(=O)OCc3cc(=O)n4ccccc4n3)C(C)=NS2(=O)=O)cc1
- RP-LC retention time: 1130 s

Structure (SMILES): O=C(c1ccc(F)cc1)N1CCCC1c1nc(-c2cccc(C(F)(F)F)c2)no1 (stereo not given)
- RP-LC retention time: 1090 s

Structure (SMILES): CC(C)Cc1cc(-c2nn3c(-c4cccc(F)c4)nnc3s2)n[nH]1
- RP-LC retention time: 993 s

Structure (SMILES): Cc1ccc(-c2nc(NCc3cccnc3)ncc2C(=O)O)cc1
- RP-LC retention time: 587 s
